# From patent US20230255205A1, “HERBICIDAL HETEROCYCLIC DERIVATIVES” (MoA Technology Limited, priority 2020, published 2023)
# What was measured:
# Type in all cases: in vivo
# [1] = test system: Lolium multiflorum (LOLMU); assay: Pre-emergence herbicidal test, % visual injury; details: 336 h, rate 1000 g/ha, 14±1 days post-emergence in untreated plots
# Protocol: (§1) Pre-emergence testing was also performed using the same test species grown in a sandy loam soil mixture, Lolium multiflorum (LOLMU), Amaranthus retroflexus (AMARE), Echinochloa crus-galli (ECHCG), Veronica persica (VERPE).
# (§2) After sowing, at growth stage BBCH 00-07 (pre-emergence), the plants are sprayed with an aqueous spray solution derived from the formulation of the technical active ingredient in acetone/water (50:50) solution containing 0.5% Tween 20 (polyoxyethlyene sorbitan monolaureate, GAS RN 9005-64-5). The test compounds are applied at the required […] concentration of active ingredient in g/ha. The test plants are then grown in a glasshouse under controlled environmental conditions and watered regularly as required. After 14±1 days post-emergence in untreated plots (for the pre-emergence test), the test is evaluated by assessing the percentage damage caused to the plants in comparison with the untreated plots. The biological activities for pre-emergence testing are shown below (Table 4) in the following table as a % visual injury.
# [2] = test system: Amaranthus retroflexus (AMARE); assay: Pre-emergence herbicidal test, % visual injury; details: rate 1000 g/ha, 14±1 days post-emergence in untreated plots
# Protocol: as §1, §2
# Veronica persica (VERPE) [3] = assay: Pre-emergence herbicidal test, % visual injury; details: 336 h, rate 1000 g/ha, 14±1 days post-emergence in untreated plots
# Protocol: as §1, §2
# [4] = test system: Echinochloa crus-galli (ECHCG); assay: Pre-emergence herbicidal test, % visual injury; details: 336 h, rate 1000 g/ha, 14±1 days post-emergence in untreated plots
# Protocol: as §1, §2
# [5] = test system: Lolium multiflorum (LOLMU); assay: Post-emergence herbicidal test, % visual injury; details: 336 h, 14±1 days post application; for pest or weed control at 1000 g/ha: rate 1000 g/ha; for pest or weed control at 500 g/ha: rate 500 g/ha
# Protocol: (§3) Seeds of a variety of test species are grown in a sandy loam soil mixture, Lolium multiflorum (LOLMU), Amaranthus retroflexus (AMARE), Echinochloa crus-galli (ECHCG), Veronica persica (VERPE).
# (§4) After sowing, at growth stage BBCH 12-14 (post-emergence), the plants are sprayed with an aqueous spray solution derived from the formulation of the technical active ingredient in acetone/water (50:50) solution containing 0.5% Tween 20 (polyoxyethlyene sorbitan monolaureate, CAS RN 9005-64-5). The test compounds are applied at the required concentration of active ingredient in g/ha. The test plants are then grown in a glasshouse under controlled environmental conditions and watered regularly as required. After 14±1 days post application (for post-emergence test), the test is evaluated by assessing the percentage damage caused to the plants in comparison with the untreated plots. The biological activities for post-emergence testing are shown below (Table 3) as a % visual injury.
# [6] = test system: Amaranthus retroflexus (AMARE); assay: Post-emergence herbicidal test, % visual injury; details: 336 h, 14±1 days post application; for pest or weed control at 1000 g/ha: rate 1000 g/ha; for pest or weed control at 500 g/ha: rate 500 g/ha
# Protocol: as §3, §4
# Veronica persica (VERPE) [7] = assay: Post-emergence herbicidal test, % visual injury; details: 336 h, 14±1 days post application; for pest or weed control at 1000 g/ha: rate 1000 g/ha; for pest or weed control at 500 g/ha: rate 500 g/ha
# Protocol: as §3, §4
# [8] = test system: Echinochloa crus-galli (ECHCG); assay: Post-emergence herbicidal test, % visual injury; details: 336 h, 14±1 days post application; for pest or weed control at 1000 g/ha: rate 1000 g/ha; for pest or weed control at 500 g/ha: rate 500 g/ha
# Protocol: as §3, §4
# [9] = test system: Lolium multiflorum (LOLMU); assay: Comparative tests against non-claimed structural analogues, % visual injury; details: rate 125 g/ha
# Protocol: (§5) Selected compounds of the invention were also assessed in comparative tests (Table 5) against structural analogues not according to the invention (e.g. a compound containing an imidazole and one containing an oxazole, neither of which fall within the scope of the claimed invention). In each test, compounds were applied at a rate of 125 g/ha. Test 1 compared the efficacy of a compound of the invention (93) with a non-claimed structure which contains an unsubstituted triazole (105). […] Test 2 compared the efficacy of compound 93 with compound 104, which contains an imidazole and is therefore not according to the invention. […] Test 3 compared the efficacy of compound 43, a further compound according to the invention, with compound 103, which contains an oxazole not according to the invention.
# [10] = test system: Amaranthus retroflexus (AMARE); assay: as above; details: rate 125 g/ha
# Protocol: as §5
# Veronica persica (VERPE) [11] = assay: as above; details: rate 125 g/ha
# Protocol: as §5
# [12] = test system: Echinochloa crus-galli (ECHCG); assay: as above; details: rate 125 g/ha
# Protocol: as §5
SMILES,pest or weed control at 1000 g/ha [1],pest or weed control at 1000 g/ha (Veronica persica (VERPE) [3]),pest or weed control at 1000 g/ha [4],pest or weed control at 500 g/ha [5],pest or weed control at 500 g/ha [6],pest or weed control at 500 g/ha (Veronica persica (VERPE) [7]),pest or weed control at 500 g/ha [8],other results
Cc1cc(Cl)ccc1OCC(=O)Nc1nnc(C(F)(F)F)[nH]1 [Compound 35],0%,0%,80%,–,–,–,–,AMARE % visual Injury [2]: 20%; pest or weed control at 1000 g/ha [5]: 20%; pest or weed control at 1000 g/ha [6]: 80%; pest or weed control at 1000 g/ha (Veronica persica (VERPE) [7]): 60%; pest or weed control at 1000 g/ha [8]: 30%
Cn1nnnc1NC(=O)COc1ccc(F)cc1Cl [Compound 25],0%,10%,10%,70%,40%,70%,0%,–
CC(Oc1ccc(F)cc1Cl)C(=O)Nc1nnc(C(F)(F)F)[nH]1 (stereo not drawn) [Compound 32],0%,5%,0%,–,–,–,–,–
O=C(COc1ccc(F)cc1Cl)Nc1nnc(C(F)(F)F)[nH]1 [Compound 93],–,–,–,70%,100%,90%,80%,LOLMU % visual Injury [9]: 20%; AMARE % visual Injury [10]: 60%; VERPE % visual Injury (Veronica persica (VERPE) [11]): 80%; ECHCG % visual Injury [12]: 30%
Cc1nnc(NC(=O)COc2ccc(F)cc2Cl)o1 [Compound 26],50%,0%,30%,50%,90%,95%,90%,–
O=C(COc1ccc(Cl)cc1Cl)Nc1nnc(C(F)(F)F)[nH]1 [Compound 36],0%,0%,40%,–,–,–,–,AMARE % visual Injury [2]: 40%; pest or weed control at 1000 g/ha [5]: 40%; pest or weed control at 1000 g/ha [6]: 99%; pest or weed control at 1000 g/ha (Veronica persica (VERPE) [7]): 98%; pest or weed control at 1000 g/ha [8]: 30%
Cc1cc(Cl)ccc1OCCCC(=O)Nc1nnc(C(F)(F)F)[nH]1 [Compound 29],20%,0%,0%,60%,60%,80%,0%,–
O=C(COc1ccc(F)cc1Cl)Nc1nnc[nH]1 [Compound 105],–,–,–,–,–,–,–,LOLMU % visual Injury [9]: 0%; AMARE % visual Injury [10]: 50%; VERPE % visual Injury (Veronica persica (VERPE) [11]): 40%; ECHCG % visual Injury [12]: 20%
O=C(COc1ccc(F)cc1Cl)Nc1ncc(C(F)(F)F)[nH]1 [Compound 104],–,–,–,–,–,–,–,LOLMU % visual Injury [9]: 10%; AMARE % visual Injury [10]: 40%; VERPE % visual Injury (Veronica persica (VERPE) [11]): 70%; ECHCG % visual Injury [12]: 30%
O=C(COc1ccc(F)cc1Cl)Nc1nnc(C(F)(F)F)o1 [Compound 43],–,–,–,–,–,–,–,LOLMU % visual Injury [9]: 50%; AMARE % visual Injury [10]: 70%; VERPE % visual Injury (Veronica persica (VERPE) [11]): 70%; ECHCG % visual Injury [12]: 30%
"O=C(CCCOc1ccc(F)cc1Cl)Nc1nnc(C(F)(F)F)[nH]1 [Compound 30, 4-(2-chloro-4-fluorophenoxy)-N-[5-(trifluoromethyl)-4H-1,2,4-triazol-3-yl]butanamide]",60%,0%,0%,70%,80%,60%,30%,–
O=C(COc1ccc(F)cc1Cl)Nc1ncc(C(F)(F)F)o1 [Compound 103],–,–,–,–,–,–,–,LOLMU % visual Injury [9]: 20%; AMARE % visual Injury [10]: 50%; VERPE % visual Injury (Veronica persica (VERPE) [11]): 50%; ECHCG % visual Injury [12]: 30%
O=C(COc1ccc2c(c1)NC(=O)CC2)Nc1nc(C(F)(F)F)n[nH]1 [Compound 90],–,–,–,0%,0%,70%,0%,–
O=C(COc1ccc(Br)cc1F)Nc1nnc(C(F)(F)F)[nH]1 [Compound 17],–,–,–,0%,60%,70%,0%,–
"O=C(CCCOc1ccc(Cl)cc1Cl)Nc1nnc(C(F)(F)F)[nH]1 [Compound 28, 4-(2,4-dichlorophenoxy)-N-[5-(trifluoromethyl)-4H-1,2,4-triazol-3-yl]butanamide]",40%,0%,0%,0%,70%,60%,10%,–
Cc1ccc(OCC(=O)Nc2nnc(C(F)(F)F)[nH]2)c(Br)c1 [Compound 15],–,–,–,0%,0%,50%,0%,–
O=C(COc1ccc(F)cc1Cl)Nc1nnc(C(F)F)[nH]1 [Compound 14],–,–,–,60%,100%,60%,90%,–
CCC(Oc1ccccc1Cl)C(=O)Nc1nnc(C(F)(F)F)[nH]1 (stereo not drawn) [Compound 12],–,–,–,0%,70%,60%,10%,–
CC(Oc1cccc(Cl)c1)C(=O)Nc1nnn[nH]1 (stereo not drawn) [Compound 98],–,–,–,–,–,–,–,pest or weed control at 250 g/ha ([5]; rate 250 g/ha): 10%; pest or weed control at 250 g/ha ([6]; rate 250 g/ha): 0%; pest or weed control at 250 g/ha (Veronica persica (VERPE) [7]; rate 250 g/ha): 20%; pest or weed control at 250 g/ha ([8]; rate 250 g/ha): 0%
CS(=O)(=O)c1ccc(OCC(=O)Nc2nnc(C(F)(F)F)[nH]2)cc1 [Compound 13],–,–,–,60%,60%,80%,0%,–
Cc1cccc(Cl)c1OCC(=O)Nc1nnc(C(F)(F)F)[nH]1 [Compound 18],–,–,–,0%,0%,70%,0%,–
O=C(COc1c(Cl)cccc1Cl)Nc1nnc(C(F)(F)F)[nH]1 [Compound 9],–,–,–,0%,20%,0%,0%,–
